In brackets after ≈: the same amount, converted by molar mass.

Type in all cases: cell-based
One test relates to Aspergillus fumigatus. Briefly: Antifungal activity, agar dilution method. The following applies: potato agar, pH 6.4, 27° C., 4 days. Here is the method: (§1) Minimal inhibitory concentration is assayed by agar dilution method
(§2) (potato agar, pH 6.4, 27° C., 4 days)
(In agar dilution, organisms are placed on agar that contains the substance at set levels.)

In the next test the test system is Aspergillus niger. The test is described as follows: Antifungal activity, agar dilution method. The following applies: potato agar, pH 6.4, 27° C., 4 days. Here is the method:
as §1, §2

In the next test the test system is Candida albicans. Briefly: Antifungal activity, agar dilution method. The note with it: potato agar, pH 6.4, 27° C., 4 days. As to the method:
as §1, §2

Another test has as its system Microsporum gypseum. The test is described as follows: Antifungal activity, agar dilution method. The following applies: potato agar, pH 6.4, 27° C., 4 days. As to the method: as §1, §2
For a further test, the system named is Saccharomyces sake. Briefly: Antifungal activity, agar dilution method. The following applies: potato agar, pH 6.4, 27° C., 4 days. As to the method:
as §1, §2

A further test relates to Trichophyton asteroides. The test is described as follows: Antifungal activity, agar dilution method. The following applies: potato agar, pH 6.4, 27° C., 4 days. As to the method: as §1, §2
A further test relates to Trichophyton ferrugineum. The test is described as follows: Antifungal activity, agar dilution method. The note with it: potato agar, pH 6.4, 27° C., 4 days. Here is the method: as §1, §2
The subject of test [1] is Trichophyton interdigitale. The test is described as follows: Antifungal activity, agar dilution method. The note with it: potato agar, pH 6.4, 27° C., 4 days. As to the method:
as §1, §2

A further test has as its system Trichophyton rubrum. The test is described as follows: Antifungal activity, agar dilution method. The following applies: potato agar, pH 6.4, 27° C., 4 days. Here is the method: as §1, §2
A further test deals with Trichophyton schoenleini. Briefly: Antifungal activity, agar dilution method. The note with it: potato agar, pH 6.4, 27° C., 4 days. Here is the method:
as §1, §2

The next test concerns Trichophyton violaceum. Briefly: Antifungal activity, agar dilution method. The following applies: potato agar, pH 6.4, 27° C., 4 days. Here is the method:
as §1, §2

A further test deals with mycoplasma. Briefly: Antimycoplasma activity, paper disc method. The following applies: Eiken PPLO agar, pH 7.8, 37° C., 1 day. Here is the method:
Inhibitory zone is assayed by paper disc method (Eiken PPLO agar, pH 7.8,

The mark [2] stands for this setting: Trichophyton, 96 h, read-out: Minimal Inhibitory Con.

ethylkalafunginate: the “Minimal Inhibitory Con.” value in the test with Aspergillus fumigatus, with Aspergillus niger, with Candida albicans, in the test on Microsporum gypseum, in the test on Saccharomyces sake and with Trichophyton asteroides was more than 100 µg/mL each time. Besides, the “Minimal Inhibitory Con.” value (with Trichophyton ferrugineum; in [1]; with Trichophyton rubrum; in the test on Trichophyton schoenleini; with Trichophyton violaceum) was more than 100 µg/mL each time. Further, the “Inhibitory Zone” value in the test with mycoplasma (10 μg/ml) and with mycoplasma (100 μg/ml) was “none” each time.
For `CCC[C@H]1O[C@H](CC(=O)O)CC2=C1C(=O)c1c(O)cccc1C2=O` [Deoxyfrenolicin, deoxyfrenolicin], the MIC in the test on Aspergillus fumigatus (Aspergillus fumigatus, 96 h, read-out: Minimal Inhibitory Con.) was 6.3 µg/mL (≈ 19.1 µM); in the test with Aspergillus niger (Aspergillus niger, 96 h, read-out: Minimal Inhibitory Con.) it was more than 100 µg/mL; with Candida albicans (Candida albicans, 96 h, read-out: Minimal Inhibitory Con.), 50 µg/mL (≈ 151 µM); in the test on Microsporum gypseum (Nannizzia gypsea, 96 h, read-out: Minimal Inhibitory Con.), less than 0.2 µg/mL; in the test with Saccharomyces sake (Saccharomyces, 96 h, read-out: Minimal Inhibitory Con.), 6.3 µg/mL (≈ 19.1 µM); in the test on Trichophyton asteroides (setting [2]) it was less than 0.2 µg/mL. Also, the MIC with Trichophyton ferrugineum (Microsporum ferrugineum, 96 h, read-out: Minimal Inhibitory Con.) is 3.1 µg/mL (≈ 9.38 µM); in test [1] (Trichophyton interdigitale, 96 h, read-out: Minimal Inhibitory Con.), 0.4 µg/mL (≈ 1.21 µM); in the test with Trichophyton rubrum (Trichophyton rubrum, 96 h, read-out: Minimal Inhibitory Con.) it was less than 0.2 µg/mL; in the test on Trichophyton schoenleini (setting [2]) it was less than 0.2 µg/mL; with Trichophyton violaceum (Trichophyton violaceum, 96 h, read-out: Minimal Inhibitory Con.), 0.8 µg/mL (≈ 2.42 µM). In addition, in the test with mycoplasma (Mycoplasma, 24 h, 10 μg/ml, read-out: Inhibitory Zone), the zone of inhibition at 10 µg/mL is 14.6 mm. Also, the zone of inhibition at 100 µg/mL in the test with mycoplasma (Mycoplasma, 24 h, 100 μg/ml, read-out: Inhibitory Zone) worked out at 21.8 mm.

Values taken from patent US4308210A, “Nanaomycin B and therapeutic compositions containing same” (The Kitasato Institute, priority 1976, dated 1981).
